Read-outs that look alike come from different tables or passages of the source.
Assays:
Format in all cases: binding
[1] = molecular target: T1, His-BIR2 (124-240/C202A/C213G) (Homo sapiens, UniProt P98170, C202A/C213G); assay: XIAP-BIR2/SMAC Peptide AlphaScreen Assay
T1 construct: additions of His-BIR2 (124-240/C202A/C213G), Biotinylated SMAC peptide
Method: C. XIAP-BIR2/SMAC Peptide AlphaScreen Assay
Assays were performed in white, flat-bottom, 384-well ProxiPlates (Perkin Elmer). […]. The reaction was incubated at room temperature for 60 minutes. After 60 minutes, 2.5 μL of Alphascreen detection reagent (Perkin Elmer) was added to the reaction mixture and incubated at room temperature in the dark for 120 minutes. The Alphascreen signal generated by the reaction was detected on the Envision Plate Reader. Inhibition data were calculated from an Alphascreen signal generated by the no protein control reactions for 100% inhibition and vehicle-only reactions for 0% inhibition. […]
Biotinylated SMAC peptide, 4 μg/mL Alphascreen detection reagents, and 0.5% DMSO. Dose response curves were generated to determine the concentration required for inhibiting 50% of the activity (IC50). Compounds were dissolved at 10 mM in dimethylsulfoxide (DMSO) and evaluated at eleven concentrations. IC50 values were derived by non-linear regression analysis.

[2] = molecular target: T2, N-His-Tb-BIR3(241-356, XIAP) (Homo sapiens, UniProt P98170); assay: XIAP-BIR3 SMAC Peptide Fluorescence Polarization Assay (FPA)
T2 construct: additions of N-His-Tb-BIR3(241-356, XIAP), fluoresceinated modified SMAC peptide; Tb (meaning not explained; sits between His tag and BIR3) (N)
Method: A. XIAP-BIR3 SMAC Peptide Fluorescence Polarization Assay (FPA) Assays were performed in black, flat-bottom, 384-well plates. The final assay volume was 50 μL prepared from additions of N-His-Tb-BIR3(241-356, XIAP), fluoresceinated modified SMAC peptide, and test compounds in assay buffer consisting of 20 mM Sodium Phosphate, 1 mM EDTA, 50 mM NaCl, and 0.05% Pluronic F68. The reaction was incubated at room temperature for 60 minutes and fluorescence polarization of the reaction was detected on the LJL Plate Reader. Inhibition data were calculated from mP values generated by the no protein control reactions for 100% inhibition and vehicle-only reactions for 0% inhibition. The final concentration of reagents in the assay was 130 nM N-His-Tb-BIR3(241-356, XIAP), 1.4 nM fluoresceinated modified SMAC peptide, and 1% DMSO. Dose response curves were generated to determine the concentration required for inhibiting 50% of polarization activity (IC50). Compounds were dissolved at 10 mM in dimethylsulfoxide (DMSO) and evaluated at eleven concentrations. IC50 values were derived by non-linear regression analysis.

[3] = molecular target: T3, His-BIR2-3 (125-356, C202A/C213G, XIAP) (Homo sapiens, UniProt P98170, C202A/C213G); assay: XIAP-BIR2-3 Dimeric SMAC Peptide Homogeneous Time Resolved Fluorescence (HTRF) Assay; conditions: fluorescein labeled dimeric SMAC peptide
T3 construct: additions of His-BIR2-3 (125-356, C202A/C213G, XIAP), fluorescein labeled dimeric SMAC peptide

His-BIR3 (241-356, XIAP) = molecular target: T4, His-BIR3 (241-356, XIAP) (Homo sapiens, UniProt P98170); assay: XIAP-BIR3/SMAC Homogeneous Time Resolved Fluorescence (HTRF) Assay; conditions: fluorescein labeled SMAC peptide
T4 construct: additions of His-BIR3 (241-356, XIAP), fluorescein labeled SMAC peptide

[4] = read-out: BIR2 ALPHA IC50, biotinylated SMAC peptide
[5] = fluorescence polarization, fluoresceinated modified SMAC peptide, read-out: BIR3 FPA IC50
[6] = biotinylated SMAC peptide, read-out: BIR2 ALPHA IC50
[7] = read-out: BIR3 FPA IC50, fluorescence polarization, fluoresceinated modified SMAC peptide

T1 sequence (P98170 124-240 C202A/C213G): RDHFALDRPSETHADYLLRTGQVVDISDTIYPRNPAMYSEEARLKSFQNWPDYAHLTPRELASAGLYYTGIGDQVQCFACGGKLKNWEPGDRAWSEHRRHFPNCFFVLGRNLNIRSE
T3 sequence (P98170 125-356 C202A/C213G): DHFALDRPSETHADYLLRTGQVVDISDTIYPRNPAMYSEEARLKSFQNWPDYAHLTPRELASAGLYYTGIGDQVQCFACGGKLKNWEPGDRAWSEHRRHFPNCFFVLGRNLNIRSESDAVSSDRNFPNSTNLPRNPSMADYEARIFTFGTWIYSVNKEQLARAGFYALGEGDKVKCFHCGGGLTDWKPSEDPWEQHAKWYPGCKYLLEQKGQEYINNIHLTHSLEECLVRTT
T4 sequence (P98170 241-356): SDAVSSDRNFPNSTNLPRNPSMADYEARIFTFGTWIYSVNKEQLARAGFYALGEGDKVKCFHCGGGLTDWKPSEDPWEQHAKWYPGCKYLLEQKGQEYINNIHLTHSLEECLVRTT
T2 sequence (P98170 241-356): as above

| Compound | IC50 [1, 6] [nM] | IC50 [2] [nM] | also measured |
| --- | --- | --- | --- |
| CNC(C)C(=O)NC(C(=O)N1CC2CC1C(=O)NC(Cc1ccc3ccccc3c1)C(=O)NC(C(=O)O)Cc1ccc(cc1)OCC=CCOC1CC(C(=O)NC(Cc3ccc4ccccc4c3)C(=O)NC(C(=O)NS(C)(=O)=O)Cc3ccc(cc3)OCc3cn2nn3)N(C(=O)C(NC(=O)C(C)NC)C(C)(C)C)C1)C(C)(C)C (centres unmarked) [Example 5] | – | – | IC50 [1, 4]: 71.5 nM; IC50 [2, 5]: 50 nM |
| CNC(C)C(=O)NC(C(=O)N1CC2CC1C(=O)NC(Cc1ccc3ccccc3c1)C(=O)NC(C(=O)O)Cc1ccc(cc1)OCCCCOC1CC(C(=O)NC(Cc3ccc4ccccc4c3)C(=O)NC(C(=O)NS(C)(=O)=O)Cc3ccc(cc3)OCc3cn2nn3)N(C(=O)C(NC(=O)C(C)NC)C(C)(C)C)C1)C(C)(C)C (centres unmarked) [Example 8] | – | – | IC50 [1, 4]: 190 nM; IC50 [2, 5]: 49.6 nM |
| CNC(C)C(=O)NC(C(=O)N1CC2CC1C(=O)NC(Cc1ccc3ccccc3c1)C(=O)NC(C(=O)O)Cc1ccc(cc1)OCC=CCOC1CC(C(=O)NC(Cc3ccc4ccccc4c3)C(=O)NC(C(=O)O)Cc3ccc(cc3)C(=O)N2)N(C(=O)C(NC(=O)C(C)NC)C(C)(C)C)C1)C(C)(C)C (centres unmarked) [Example 32] | 16.2 | – | IC50 [2, 7]: 36.1 nM |
| CNC(C)C(=O)NC(C(=O)N1CC2CC1C(=O)NC(Cc1ccc3ccccc3c1)C(=O)NC(C(=O)O)Cc1ccc(cc1)OCC=CCOC1CC(C(=O)NC(Cc3ccc4ccccc4c3)C(=O)NC(C(=O)O)CCC(=O)N2)N(C(=O)C(NC(=O)C(C)NC)C(C)(C)C)C1)C(C)(C)C (centres unmarked) [Example 33] | 21.6 | – | IC50 [3]: 9.5 nM; IC50 [2, 7]: 31.6 nM; IC50 (His-BIR3 (241-356, XIAP)): 84.7 nM |
| CN[C@@H](C)C(=O)N[C@H](C(=O)N1C[C@@H]2C[C@H]1C(=O)N[C@@H](Cc1ccc3ccccc3c1)C(=O)N[C@H](C(=O)O)COC/C=C/CO[C@H]1C[C@@H](C(=O)N[C@@H](Cc3ccc4ccccc4c3)C(=O)N[C@H](C(=O)O)CCC(=O)N2)N(C(=O)[C@@H](NC(=O)[C@H](C)NC)C(C)(C)C)C1)C(C)(C)C [Example 34] | 33.6 | 40.1 | – |
| CN[C@@H](C)C(=O)N[C@H](C(=O)N1C[C@@H]2C[C@H]1C(=O)N[C@@H](Cc1ccc3ccccc3c1)C(=O)N[C@H](C(=O)O)C/C=C/CO[C@H]1C[C@@H](C(=O)N[C@@H](Cc3ccc4ccccc4c3)C(=O)N[C@H](C(=O)O)CCC(=O)N2)N(C(=O)[C@@H](NC(=O)[C@H](C)NC)C(C)(C)C)C1)C(C)(C)C [Example 35] | 49.1 | 47.6 | – |
| CNC(C)C(=O)NC(C(=O)N1CC2CC1C(=O)NC(Cc1ccc3ccccc3c1)C(=O)NC(C(=O)O)Cc1ccc(cc1)OCC=CCOC1CC(C(=O)NC(Cc3ccc4ccccc4c3)C(=O)NC(C(=O)O)CCCC(=O)N2)N(C(=O)C(NC(=O)C(C)NC)C(C)(C)C)C1)C(C)(C)C (centres unmarked) [Example 36] | 38.8 | – | IC50 [2, 7]: 49 nM |
| CN[C@@H](C)C(=O)N[C@H](C(=O)N1C[C@@H]2C[C@H]1C(=O)N[C@@H](Cc1ccc3ccccc3c1)C(=O)N[C@H](C(=O)O)COC/C=C/CO[C@H]1C[C@@H](C(=O)N[C@@H](Cc3ccc4ccccc4c3)C(=O)N[C@H](C(=O)O)CCCC(=O)N2)N(C(=O)[C@@H](NC(=O)[C@H](C)NC)C(C)(C)C)C1)C(C)(C)C [Example 37] | 58.2 | 33 | – |
| CN[C@@H](C)C(=O)N[C@H](C(=O)N1C[C@@H]2C[C@H]1C(=O)N[C@@H](Cc1ccc3ccccc3c1)C(=O)N[C@H](C(=O)O)C/C=C/CO[C@H]1C[C@@H](C(=O)N[C@@H](Cc3ccc4ccccc4c3)C(=O)N[C@H](C(=O)O)CCCC(=O)N2)N(C(=O)[C@@H](NC(=O)[C@H](C)NC)C(C)(C)C)C1)C(C)(C)C [Example 38] | 116 | 42.1 | – |
| CN[C@@H](C)C(=O)N[C@H](C(=O)N1C[C@@H]2C[C@H]1C(=O)N[C@@H](Cc1ccc3ccccc3c1)C(=O)N[C@H](C(=O)O)COC/C=C/CO[C@H]1C[C@@H](C(=O)N[C@@H](Cc3ccc4ccccc4c3)C(=O)N[C@H](C(=O)O)Cc3ccc(cc3)C(=O)N2)N(C(=O)[C@@H](NC(=O)[C@H](C)NC)C(C)(C)C)C1)C(C)(C)C [Example 39] | 41.1 | 31.3 | – |
| CN[C@@H](C)C(=O)N[C@H](C(=O)N1C[C@@H]2C[C@H]1C(=O)N[C@@H](Cc1ccc3ccccc3c1)C(=O)N[C@H](C(=O)O)C/C=C/CO[C@H]1C[C@@H](C(=O)N[C@@H](Cc3ccc4ccccc4c3)C(=O)N[C@H](C(=O)O)Cc3ccc(cc3)C(=O)N2)N(C(=O)[C@@H](NC(=O)[C@H](C)NC)C(C)(C)C)C1)C(C)(C)C [Example 40] | 44.2 | 26.3 | – |
| CN[C@@H](C)C(=O)N[C@H](C(=O)N1C[C@@H]2C[C@H]1C(=O)N[C@@H](Cc1ccc3ccccc3c1)C(=O)N[C@H](C(=O)O)Cc1ccc(cc1)OC/C=C/CO[C@H]1C[C@@H](C(=O)N[C@@H](Cc3ccc4ccccc4c3)C(=O)N[C@H](C(=O)O)CC(=O)N2)N(C(=O)[C@@H](NC(=O)[C@H](C)NC)C(C)(C)C)C1)C(C)(C)C [Example 41] | 45.7 | 46.7 | – |
| CN[C@@H](C)C(=O)N[C@H](C(=O)N1C[C@@H]2C[C@H]1C(=O)N[C@@H](Cc1ccc3ccccc3c1)C(=O)N[C@H](C(=O)O)COC/C=C/CO[C@H]1C[C@@H](C(=O)N[C@@H](Cc3ccc4ccccc4c3)C(=O)N[C@H](C(=O)O)CC(=O)N2)N(C(=O)[C@@H](NC(=O)[C@H](C)NC)C(C)(C)C)C1)C(C)(C)C [Example 42] | 74.6 | 44 | – |
| CN[C@@H](C)C(=O)N[C@H](C(=O)N1C[C@@H]2C[C@H]1C(=O)N[C@@H](Cc1ccc3ccccc3c1)C(=O)N[C@H](C(=O)O)C/C=C/CO[C@H]1C[C@@H](C(=O)N[C@@H](Cc3ccc4ccccc4c3)C(=O)N[C@H](C(=O)O)CC(=O)N2)N(C(=O)[C@@H](NC(=O)[C@H](C)NC)C(C)(C)C)C1)C(C)(C)C [Example 43] | 147 | 74.1 | – |
| CN[C@@H](C)C(=O)N[C@H](C(=O)N1C[C@@H]2C[C@H]1C(=O)N[C@@H](Cc1ccc3ccccc3c1)C(=O)N[C@H](C(=O)O)Cc1ccc(cc1)OCc1cn(nn1)[C@H]1C[C@@H](C(=O)N[C@@H](Cc3ccc4ccccc4c3)C(=O)N[C@H](C(=O)NS(C)(=O)=O)Cc3ccc(cc3)OCCCCO2)N(C(=O)[C@@H](NC(=O)[C@H](C)NC)C(C)(C)C)C1)C(C)(C)C [Example 124] | – | – | IC50 [3]: 13.6 nM; IC50 (His-BIR3 (241-356, XIAP)): 19.4 nM |
| CN[C@@H](C)C(=O)N[C@H](C(=O)N1C[C@@H]2C[C@H]1C(=O)N[C@@H](Cc1ccc3ccccc3c1)C(=O)N[C@H](C(=O)O)Cc1ccc(cc1)OCCCCO[C@H]1C[C@@H](C(=O)N[C@@H](Cc3ccc4ccccc4c3)C(=O)N[C@H](C(=O)NS(=O)(=O)c3ccccn3)Cc3ccc(cc3)OCc3cn2nn3)N(C(=O)[C@@H](NC(=O)[C@H](C)NC)C(C)(C)C)C1)C(C)(C)C [Example 125] | – | – | IC50 [3]: 2.7 nM; IC50 (His-BIR3 (241-356, XIAP)): 3.7 nM |
| CN[C@@H](C)C(=O)N[C@H](C(=O)N1C[C@@H]2C[C@H]1C(=O)N[C@@H](Cc1ccc3ccccc3c1)C(=O)N[C@H](C(=O)O)Cc1ccc(cc1)CCCCO[C@H]1C[C@@H](C(=O)N[C@@H](Cc3ccc4ccccc4c3)C(=O)N[C@H](C(=O)NS(=O)(=O)C3CC3)Cc3ccc(cc3)OCc3cn2nn3)N(C(=O)[C@@H](NC(=O)[C@H](C)NC)C(C)(C)C)C1)C(C)(C)C [Example 127] | – | – | IC50 [3]: 7.1 nM; IC50 (His-BIR3 (241-356, XIAP)): 7.5 nM |
| CN[C@@H](C)C(=O)N[C@H](C(=O)N1C[C@@H]2C[C@H]1C(=O)N[C@@H](Cc1ccc3ccccc3c1)C(=O)N[C@H](C(=O)O)Cc1ccc(cc1)OCc1cn(nn1)[C@H]1C[C@@H](C(=O)N[C@@H](Cc3ccc4ccccc4c3)C(=O)N[C@H](c3nnn[nH]3)Cc3ccc(cc3)OCCCCO2)N(C(=O)[C@@H](NC(=O)[C@H](C)NC)C(C)(C)C)C1)C(C)(C)C [Example 128] | – | – | IC50 [3]: 3.3 nM; IC50 (His-BIR3 (241-356, XIAP)): 5.5 nM |

Source: patent US20140135270A1, “MACROCYCLIC COMPOUNDS FOR INHIBITION OF INHIBITORS OF APOPTOSIS” (Ensemble Therapeutics Corp., priority 2012, published 2014)
